Measurements: US9719093B2, “Composition for treating cancer associated with HPV infection” (priority 2012, dated 2017)

System: HeLa cell line
Assay: Cell senescence-associated β-galactosidase (SA-β-gal) activity
Type: cell-based
Details: treated alone
Experimental: A HeLa or Caski cell line, which was seeded in a 6-well plate in 2×10^5 cells or 1.5×10^5 cells and then cultured for a day by the method as described above, was transduced with siRNA. Then, each transduced cell line was treated with cisplatin (CDDP) in a final concentration of 2.5 uM, and cultured.
By using the cell senescence assay kit (BioVision, USA), cells were washed with PBS and treated with SA-β-gal staining solution for 12 hours at 37. Cells stained in blue were observed by using a general optical microscope with the magnification of 100 to 200 times.
SA β-Gal activity of a HeLA or Caski cell line, which was treated by the method as described above, was measured.

In the case of N.N.[Cl][Pt][Cl] [cisplatin], the “SA β-Gal activity (staining)” value is reported as “cells were stained in blue”.
